Key:
[1] = target: Tyrosine-protein kinase Fes/Fps (Homo sapiens) (UniProt P07332); experiment: Inhibition of human FES assessed as residual activity at 1 uM relative to control
[2] = target: Serine/threonine-protein kinase 10 (Homo sapiens) (UniProt O94804); experiment: Inhibition of human LOK assessed as residual activity at 1 uM relative to control
[3] = target: T1, Dual specificity tyrosine-phosphorylation-regulated kinase 2 (Homo sapiens) (UniProt Q92630); experiment: Inhibition of human DYRK2 assessed as residual activity at 1 uM relative to control
T1 sequence (whole entry): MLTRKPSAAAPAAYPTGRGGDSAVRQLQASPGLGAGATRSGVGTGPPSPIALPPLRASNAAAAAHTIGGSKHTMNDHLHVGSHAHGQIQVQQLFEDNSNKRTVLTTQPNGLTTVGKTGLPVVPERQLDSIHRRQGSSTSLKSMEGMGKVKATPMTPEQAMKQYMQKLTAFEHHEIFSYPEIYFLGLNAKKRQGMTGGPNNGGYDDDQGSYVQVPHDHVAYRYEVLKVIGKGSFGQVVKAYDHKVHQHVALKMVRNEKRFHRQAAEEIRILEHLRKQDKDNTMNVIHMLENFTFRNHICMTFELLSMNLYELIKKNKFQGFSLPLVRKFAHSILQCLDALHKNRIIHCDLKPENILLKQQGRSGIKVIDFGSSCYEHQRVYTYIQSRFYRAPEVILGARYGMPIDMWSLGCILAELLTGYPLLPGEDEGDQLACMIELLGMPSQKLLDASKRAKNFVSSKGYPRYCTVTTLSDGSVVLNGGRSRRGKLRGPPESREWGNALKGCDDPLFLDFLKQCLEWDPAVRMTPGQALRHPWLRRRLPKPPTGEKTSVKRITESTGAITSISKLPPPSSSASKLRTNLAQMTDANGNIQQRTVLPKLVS

[4] = target: T2, Phosphatidylinositol 3-kinase C2 domain-containing subunit gamma (Homo sapiens) (UniProt O75747); experiment: Inhibition of human PI3KC2gamma assessed as residual activity at 1 uM relative to control
T2 sequence (whole entry): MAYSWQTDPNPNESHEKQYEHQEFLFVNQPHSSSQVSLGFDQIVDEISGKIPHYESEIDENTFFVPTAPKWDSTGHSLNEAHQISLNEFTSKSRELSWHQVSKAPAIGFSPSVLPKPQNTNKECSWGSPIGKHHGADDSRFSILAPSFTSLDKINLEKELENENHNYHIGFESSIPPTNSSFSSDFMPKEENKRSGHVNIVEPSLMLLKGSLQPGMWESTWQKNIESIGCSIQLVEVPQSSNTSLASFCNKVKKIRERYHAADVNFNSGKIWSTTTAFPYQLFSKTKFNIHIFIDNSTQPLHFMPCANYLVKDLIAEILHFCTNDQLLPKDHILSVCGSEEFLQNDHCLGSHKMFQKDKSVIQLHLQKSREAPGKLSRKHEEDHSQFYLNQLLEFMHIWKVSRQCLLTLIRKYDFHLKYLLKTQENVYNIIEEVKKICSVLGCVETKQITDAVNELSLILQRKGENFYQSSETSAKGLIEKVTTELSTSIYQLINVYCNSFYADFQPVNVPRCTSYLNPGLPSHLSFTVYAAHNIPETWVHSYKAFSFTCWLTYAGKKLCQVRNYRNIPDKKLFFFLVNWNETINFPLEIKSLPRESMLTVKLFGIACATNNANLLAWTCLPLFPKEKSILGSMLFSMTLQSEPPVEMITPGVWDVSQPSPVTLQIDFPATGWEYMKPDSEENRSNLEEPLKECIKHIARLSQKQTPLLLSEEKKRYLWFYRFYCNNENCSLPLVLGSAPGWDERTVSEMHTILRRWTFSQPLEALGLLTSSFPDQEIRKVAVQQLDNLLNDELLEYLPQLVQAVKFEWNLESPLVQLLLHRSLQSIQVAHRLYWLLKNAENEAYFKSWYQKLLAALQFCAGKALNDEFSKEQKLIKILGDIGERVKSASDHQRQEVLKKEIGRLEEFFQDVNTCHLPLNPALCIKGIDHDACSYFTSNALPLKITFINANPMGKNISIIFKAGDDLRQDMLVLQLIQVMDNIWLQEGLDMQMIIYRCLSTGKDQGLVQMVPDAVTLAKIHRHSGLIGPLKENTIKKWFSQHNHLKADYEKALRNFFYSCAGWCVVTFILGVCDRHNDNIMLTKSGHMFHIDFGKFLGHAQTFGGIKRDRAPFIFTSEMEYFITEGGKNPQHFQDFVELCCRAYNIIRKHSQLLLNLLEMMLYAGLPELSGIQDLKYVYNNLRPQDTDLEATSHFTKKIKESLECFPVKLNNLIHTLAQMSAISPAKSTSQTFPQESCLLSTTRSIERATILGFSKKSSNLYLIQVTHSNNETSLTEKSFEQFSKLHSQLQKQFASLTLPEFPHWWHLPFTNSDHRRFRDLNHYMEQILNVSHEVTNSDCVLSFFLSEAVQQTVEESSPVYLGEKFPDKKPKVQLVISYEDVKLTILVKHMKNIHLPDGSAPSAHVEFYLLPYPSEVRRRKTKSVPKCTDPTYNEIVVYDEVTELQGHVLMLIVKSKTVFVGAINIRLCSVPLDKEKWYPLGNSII

Sequence of Tyrosine-protein kinase Fes/Fps (Homo sapiens) (P07332 whole entry): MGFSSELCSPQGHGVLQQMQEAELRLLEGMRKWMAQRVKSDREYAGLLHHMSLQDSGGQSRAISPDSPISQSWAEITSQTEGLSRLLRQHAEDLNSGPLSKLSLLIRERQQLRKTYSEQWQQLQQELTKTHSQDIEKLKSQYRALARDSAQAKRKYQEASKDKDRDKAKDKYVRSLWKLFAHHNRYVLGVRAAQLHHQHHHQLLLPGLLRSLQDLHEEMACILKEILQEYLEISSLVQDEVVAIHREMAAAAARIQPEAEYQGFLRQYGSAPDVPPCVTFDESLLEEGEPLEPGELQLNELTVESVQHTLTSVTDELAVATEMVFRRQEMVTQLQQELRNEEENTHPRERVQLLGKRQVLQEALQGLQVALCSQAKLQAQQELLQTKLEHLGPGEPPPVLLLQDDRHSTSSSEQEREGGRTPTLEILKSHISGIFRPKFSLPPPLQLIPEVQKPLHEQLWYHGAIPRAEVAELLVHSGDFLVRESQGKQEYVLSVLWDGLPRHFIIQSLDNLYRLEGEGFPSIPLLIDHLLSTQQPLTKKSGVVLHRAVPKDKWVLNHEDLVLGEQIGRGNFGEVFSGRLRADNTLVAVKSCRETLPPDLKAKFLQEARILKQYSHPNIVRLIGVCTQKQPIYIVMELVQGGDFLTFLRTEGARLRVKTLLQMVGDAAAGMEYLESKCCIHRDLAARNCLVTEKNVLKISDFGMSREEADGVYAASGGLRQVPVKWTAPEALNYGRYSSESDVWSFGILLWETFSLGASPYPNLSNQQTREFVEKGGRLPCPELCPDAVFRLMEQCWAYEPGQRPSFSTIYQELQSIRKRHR
Sequence of Serine/threonine-protein kinase 10 (Homo sapiens) (O94804 whole entry, looked up): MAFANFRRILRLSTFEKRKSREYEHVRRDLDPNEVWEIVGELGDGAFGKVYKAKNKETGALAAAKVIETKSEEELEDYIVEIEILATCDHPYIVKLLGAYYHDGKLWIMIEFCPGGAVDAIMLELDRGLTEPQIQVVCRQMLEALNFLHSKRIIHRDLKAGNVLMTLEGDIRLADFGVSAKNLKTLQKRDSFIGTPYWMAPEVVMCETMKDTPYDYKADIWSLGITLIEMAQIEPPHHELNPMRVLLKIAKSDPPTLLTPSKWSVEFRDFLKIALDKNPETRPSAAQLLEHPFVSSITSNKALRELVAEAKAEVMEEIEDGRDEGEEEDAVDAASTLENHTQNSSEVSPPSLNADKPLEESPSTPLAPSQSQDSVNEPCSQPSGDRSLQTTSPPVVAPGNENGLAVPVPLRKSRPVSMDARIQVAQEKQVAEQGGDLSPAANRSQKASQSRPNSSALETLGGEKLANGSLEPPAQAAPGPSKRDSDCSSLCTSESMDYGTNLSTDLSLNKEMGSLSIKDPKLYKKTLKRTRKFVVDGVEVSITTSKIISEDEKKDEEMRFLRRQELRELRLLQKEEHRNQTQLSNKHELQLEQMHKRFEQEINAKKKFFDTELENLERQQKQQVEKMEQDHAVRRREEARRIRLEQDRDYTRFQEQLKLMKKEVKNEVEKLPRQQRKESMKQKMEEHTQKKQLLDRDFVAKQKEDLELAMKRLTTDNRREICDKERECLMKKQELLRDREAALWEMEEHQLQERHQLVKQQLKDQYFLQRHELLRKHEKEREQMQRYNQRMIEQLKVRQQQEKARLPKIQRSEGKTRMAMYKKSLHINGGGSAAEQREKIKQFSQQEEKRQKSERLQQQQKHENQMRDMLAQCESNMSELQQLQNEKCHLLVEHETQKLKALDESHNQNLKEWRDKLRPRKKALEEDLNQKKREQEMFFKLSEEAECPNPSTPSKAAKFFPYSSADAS

SMILES | Activity [1] [%] | Activity [2] [%] | Activity [3] [%] | Activity [4] [%]
COc1ccc(-c2nc3cc(-c4csc(C(=O)NCC(C)(C)C)c4)cnc3[nH]2)cc1 | 85 | 102 | 30 | 94
COc1ccc(-c2nc3cc(-c4csc(C(=O)NCCC(C)C)c4)cnc3[nH]2)cc1 | 92 | 97 | 11 | 94
COc1ccc(-c2nc3cc(-c4csc(C(=O)NCC(C)C)c4)cnc3[nH]2)cc1 | 92 | 100 | 20 | 92

From ChEMBL document CHEMBL3124838, “Discovery of 6-aryl-azabenzimidazoles that inhibit the TBK1/IKK-ε kinases” (Bioorg Med Chem Lett, 2014)
